Holding throughout (type): cell-based
Assay [1] relates to Escherichia coli (E. coli—ATCC #10536). The assay can be described thus: Synergy test: high resolution MBC microtiter plate assay, phosphate buffer containing 35% dipropylene glycol, 15 seconds contact. The settings on record: E. coli 10536; for SI (Synergy Index = Qa/QA + Qb/QB): at Qa and Qb, <1 synergy, 1 additivity, >1 antagonism.
In assay [2] the test system is Staphylococcus aureus (10788 strain). The assay can be described thus: Antimicrobial efficacy in water, 15 seconds contact, mean bacterial survival NMBS by colony count.
Assay [3] concerns Escherichia coli (10536 strain). The description is as above. How it is done: An overnight culture of Escherichia coli (10536 strain) was prepared in 50 ml total volume of TSB broth, grown for ca. 18 hrs at 37° C. and shaken at 150 rpm. 1 ml of this overnight E. coli culture was transferred to 50 ml of fresh TSB broth and incubated at 37° C. at 150 rpm for ca. 4 hours. […] This bacterial stock was used for assaying against antimicrobial actives (in triplicate).
The following assay describes the testing of 8 materials using 6 dilutions across half of a 96-well micro litre plate (MTP). Using this approach it is possible to assay 16 actives (without replicates) with, one full dilution plate, replicating this set up in two halves of the plate columns, 1-6 and 7-12.
IM solutions of the test actives were prepared in dimethylsulphoxide (DMSO).
Aliquots (270 μl) of the materials at 1.11 times the final concentration were dispensed into the wells of the MTP along one column (A1-H1). This MTP was labeled as the “Screening plate”.
In another MTP, labeled as the “Dilution plate”, 270 μl of D/E neutralising solution from DIFCO Composition was added to column 1. The composition of the neutralising solution was as follows: pancreatic digest of casein, 5.0 g/L; Yeast Extract, 2.5 g/L; Dextrose, 10 g/L, sodium thioglycollate, 1.0 g/L, sodium thiosulphate, 6.0 g/L; sodium bisulphite, 2.5 g/L; Polysorbate 80, 5.0 g/L; lecithin 7.0 g/L; bromocresol purple, 0.02 g/L with a pH is the range 7.6±0.2.
270 μl of tryptone diluent solution was added to all the remaining wells of the Dilution MTP (columns 2-6).
Bacterial stock (30 μl) was then added to the prepared 270 μl of the solution of actives in the Screening Plate and mixed, using a multichannel pipette with 8 tips to aspirate and dispense the same volume of bacterial stock in parallel to 8 wells in rows A-H. After a contact time of 15 seconds, the mixtures were quenched by transferring 30 μl volumes of the mixtures into the 270 μl D/E neutralising solution in the prepared dilution plate, using aspiration to mix. After exactly 5 minutes in the D/E neutralising solution, 30 μl volumes were transferred from column 1 to column 2 of the Dilution MTP and mixed, before transferring further 30 μl volumes from column 2 into column 3. This process was repeated serially diluting the bacteria across the plate to column 6.
30 μl volumes from each well in the Dilution MTP were transferred onto pre-labeled segment of Tryptone Soya Agar (TSA) plates starting from the lowest bacterial concentration (highest dilution, column 6) to the highest bacterial concentration (column 1). The TSA plates were allowed to stand for ca. 2 hours so that the 30 μl inocula spots could dry and the plates were then inverted and incubated overnight at 37° C. before enumerating the bacterial colonies at the labeled dilutions to determine the effects of the actives on bacterial growth.
Mean bacterial survival numbers NMBS (expressed in Log CFU/ml) are obtained by first determining the segment of the TSA plate where the number of bacterial colonies is countable. From the colony number in this segment, NMBS is calculated by the formula: […]
Here, Ncol is the colony count, and DF is the dilution factor taken from the MTP-well corresponding to the TSA plate segment (i.e. DF may range from 1 for the quench, to 6 for the highest dilution).

Values joined by “and” are separate entries in the source; they are usually repeats but may differ in a detail not shown here. Identical values can stand only once.

As to `CCCc1ccccc1O` [2-n-propylphenol], in assay [1], the “SI (Synergy Index = Qa/QA + Qb/QB)” value was 1.00.

For `CC(C)=CCC/C(C)=C/CO` [(E)-3,7-dimethylocta-2,6-dien-1-ol], the “Log reduction S. aureus ATCC 6538” value in assay [2] (component alone at 0.1% w/v) was −0.12; in assay [2] (component alone at […] w/v) it was −0.06. Besides, the “SI (Synergy Index = Qa/QA + Qb/QB)” value in assay [1] was found to be 1.00. Also, the “Qb: MBC of the second component (B) acting alone (QB)” value in assay [1] (component alone (Qa = 0), complete kill in 15 seconds) is 0.3 weight % and 0.5 weight % and 0.6 weight %. Moreover, the “Log reduction E. coli ATCC 10536” value in assay [3] (component alone at 0.1% w/v) is reported as 1.27; in assay [3] (component alone at […] w/v) it was 1.94.

The values are drawn from patent US20150087723A1, “MICROBIAL COMPOSITION” (Rohm and Haas Company, priority 2011, published 2015).
